Literature values as cited in patent publication US11931686B1, “Carbon capture process utilizing inert gas medium to assist thermal desorption” (CARBON CAPTURE INC., priority 2022, dated 2024).
Read-outs that look alike come from different tables or passages of the source.

Columns and labels:
[1] = Table 1

Compound	LD50 (Rat) (Rat; rat, in vivo)	also measured
CCCCO [1-Butanol]	790 mg/kg	–
CCCO [1-Propanol]	1,870 mg/kg	–
CCC(C)O (centres unmarked) [2-Butanol]	2,193 mg/kg	–
CCC(CC)CO [2-Ethylbutanol]	1,850 mg/kg	–
CCCCC(CC)CO (centres unmarked) [2-Ethylhexanol]	3,730 mg/kg	–
CC(C)O [2-Propanol]	3,600 mg/kg	–
Clc1ccccc1 [Chlorobenzene]	>2,000 mg/kg	–
CCO [Ethanol]	7,340 mg/kg	–
CCOC(=O)c1ccccc1 [Ethyl Benzoate, ethyl benzoate]	2,100 mg/kg	Solubility in Water [1]: 0.07 g/100 g
CCCCCCC [Heptane]	>5,000 mg/kg	–
C[Si](C)(C)O[Si](C)(C)O[Si](C)(C)O[Si](C)(C)C [MD2M, decamethyltetrasiloxane]	>2,000 mg/kg	Solubility in Water [1]: insoluble
CO [Methanol]	5,628 mg/kg	–
CCCCCCCC [Octane]	–	LD50 (Rat) (Rat; Rat, Table 4, hydrocarbons): >5,000 mg/kg
c1ccc2c(c1)CCCC2 [Tetralin]	–	LD50 (Rat) (Rat; Rat, Table 4, hydrocarbons): 2,860 mg/kg
CCCCCCCCCCC [Undecane, undecane]	2,000 mg/kg	–
CC(C)CCO [i-Amyl Alcohol]	–	LD50 (Rat) (Rat; Rat, Table 3, alcohols): 1,300 mg/kg
CC(C)CO [i-Butanol]	2,460 mg/kg	–
Cc1cccc(C)c1 [m-Xylene, m-xylene]	5,000 mg/kg	–
Cc1ccccc1C [o-Xylene, o-xylene]	–	LD50 (Rat) (Rat; Rat, Table 1, inert chemical fluids): 3,600 mg/kg; Solubility in Water [1]: 0.02 g/100 g
Cc1ccc(C(C)C)cc1 [p-Cymene]	4,750 mg/kg	–
